PMC9516332 (Frontiers in Oncology, 2022)
Where two headings read alike, the source gives them in different places.

Tested on: 134 cancer cell lines
Assay: Cell viability assay (ATPlite, 72 hours), IC50 on cancer cell line panel
[1] = Homo sapiens, A204, read-out: IC50 in cell proliferation assay
[2] = Homo sapiens, Kasumi 1, read-out: IC50 in cell proliferation assay
[3] = Homo sapiens, MDA-MB-453, read-out: IC50 in cell proliferation assay
[4] = Homo sapiens, MOLM-13, read-out: IC50 in cell proliferation assay
[5] = Homo sapiens, MV4-11, read-out: IC50 in cell proliferation assay
[6] = Homo sapiens, SK-N-SH, read-out: IC50 in cell proliferation assay

`CO[C@@H]1[C@H](N(C)C(=O)c2ccccc2)C[C@H]2O[C@]1(C)n1c3ccccc3c3c4c(c5c6ccccc6n2c5c31)C(=O)NC4` [midostaurin] gave an IC50 [1] of 0.334 µM, an IC50 [2] of 0.32 µM and an IC50 [3] of 7.64 µM. For the same molecule, the IC50 [4] was 0.014 µM, the IC50 [5] was 0.015 µM and the IC50 [6] was 0.326 µM.

Molecule `C=CC(=O)N1CCC[C@@H](n2nc(-c3ccc(Oc4ccccc4)cc3)c3c(N)ncnc32)C1` [ibrutinib] has an IC50 (Homo sapiens, 769-P, read-out: IC50 in cell proliferation assay) of 0.624 µM, an IC50 (Homo sapiens, 786-0, read-out: IC50 in cell proliferation assay) of 0.447 µM and an IC50 [1] of 29.2 µM. For the same molecule, the IC50 (Homo sapiens, A498, read-out: IC50 in cell proliferation assay) was 10.1 µM, the IC50 (Homo sapiens, A-427, read-out: IC50 in cell proliferation assay) was 7.61 µM and the IC50 (Homo sapiens, ACHN, read-out: IC50 in cell proliferation assay) was 0.675 µM. It also gave an IC50 (Homo sapiens, AN3-CA, read-out: IC50 in cell proliferation assay) of 12.7 µM, an IC50 (Homo sapiens, AU565, read-out: IC50 in cell proliferation assay) of 0.042 µM and an IC50 (Homo sapiens, BT-474, read-out: IC50 in cell proliferation assay) of 0.028 µM. The IC50 (Homo sapiens, BT-549, read-out: IC50 in cell proliferation assay) was 17.5 µM, the IC50 (Homo sapiens, BXPC-3, read-out: IC50 in cell proliferation assay) was 1.41 µM and the IC50 (Homo sapiens, C-33-A, read-out: IC50 in cell proliferation assay) was 0.046 µM. For the same molecule, the IC50 (Homo sapiens, CAL-27, read-out: IC50 in cell proliferation assay) was 0.374 µM, the IC50 (Homo sapiens, CCRF-CEM, read-out: IC50 in cell proliferation assay) was 8.44 µM and the IC50 (Homo sapiens, DU-145, read-out: IC50 in cell proliferation assay) was 0.148 µM. The IC50 (Homo sapiens, DU-4475, read-out: IC50 in cell proliferation assay) was 20.1 µM, the IC50 (Homo sapiens, Daoy, read-out: IC50 in cell proliferation assay) was 23.1 µM and the IC50 (Homo sapiens, DoTc2-4510, read-out: IC50 in cell proliferation assay) was 0.209 µM. For the same molecule, the IC50 (Homo sapiens, EOL1, read-out: IC50 in cell proliferation assay) was 0.347 µM, the IC50 (Homo sapiens, FaDu, read-out: IC50 in cell proliferation assay) was 0.095 µM and the IC50 (Homo sapiens, HCC827, read-out: IC50 in cell proliferation assay) was 0.236 µM. It also gave an IC50 (Homo sapiens, HCT-116, read-out: IC50 in cell proliferation assay) of 26.4 µM, an IC50 (Homo sapiens, HEC-1B, read-out: IC50 in cell proliferation assay) of 0.294 µM and an IC50 (Homo sapiens, HL-60, read-out: IC50 in cell proliferation assay) of 29.7 µM. For the same molecule, the IC50 (Homo sapiens, HT, read-out: IC50 in cell proliferation assay) was 0.902 µM, the IC50 (Homo sapiens, Hs-578T, read-out: IC50 in cell proliferation assay) was 15.1 µM and the IC50 (Homo sapiens, HuTu80, read-out: IC50 in cell proliferation assay) was 3.66 µM. The IC50 (Homo sapiens, J82, read-out: IC50 in cell proliferation assay) was 25.5 µM, the IC50 (Homo sapiens, Jurkat E6.1, read-out: IC50 in cell proliferation assay) was 10.8 µM and the IC50 (Homo sapiens, K562, read-out: IC50 in cell proliferation assay) was 7.32 µM. It also gave an IC50 (Homo sapiens, KATO III, read-out: IC50 in cell proliferation assay) of 1.04 µM, an IC50 (Homo sapiens, KG-1, read-out: IC50 in cell proliferation assay) of 1.35 µM and an IC50 (Homo sapiens, KLE, read-out: IC50 in cell proliferation assay) of 0.075 µM. The IC50 (Homo sapiens, KMS-11, read-out: IC50 in cell proliferation assay) was 27.9 µM, the IC50 (Homo sapiens, KU812, read-out: IC50 in cell proliferation assay) was 2.81 µM and the IC50 [2] was 7.92 µM. It also gave an IC50 (Homo sapiens, LC-2-ad, read-out: IC50 in cell proliferation assay) of 1.83 µM, an IC50 (Homo sapiens, LS174T, read-out: IC50 in cell proliferation assay) of 11.6 µM and an IC50 (Homo sapiens, LS-411N, read-out: IC50 in cell proliferation assay) of 23 µM. For the same molecule, the IC50 [3] was 0.411 µM, the IC50 (Homo sapiens, MDA-MB-468, read-out: IC50 in cell proliferation assay) was 1.04 µM and the IC50 [4] was 0.426 µM. For the same molecule, the IC50 (Homo sapiens, MOLT-4, read-out: IC50 in cell proliferation assay) was 1.88 µM, the IC50 [5] was 1.01 µM and the IC50 (Homo sapiens, MeWo, read-out: IC50 in cell proliferation assay) was 29.1 µM. For the same molecule, the IC50 (Homo sapiens, NCCIT, read-out: IC50 in cell proliferation assay) was 5.1 µM, the IC50 (Homo sapiens, NCI-H82, read-out: IC50 in cell proliferation assay) was 18.4 µM and the IC50 (Homo sapiens, NCI-H661, read-out: IC50 in cell proliferation assay) was 0.123 µM. The IC50 (Homo sapiens, NCI-H716, read-out: IC50 in cell proliferation assay) was 1.3 µM, the IC50 (Homo sapiens, NCI-H1650, read-out: IC50 in cell proliferation assay) was 0.11 µM and the IC50 (Homo sapiens, NCI-H1975, read-out: IC50 in cell proliferation assay) was 0.576 µM. The IC50 (Homo sapiens, NCI-H2228, read-out: IC50 in cell proliferation assay) was 29.9 µM, the IC50 (Homo sapiens, OVCAR-3, read-out: IC50 in cell proliferation assay) was 0.2 µM and the IC50 (Homo sapiens, PFSK-1, read-out: IC50 in cell proliferation assay) was 25.6 µM. For the same molecule, the IC50 (Homo sapiens, RL95-2, read-out: IC50 in cell proliferation assay) was 0.032 µM, the IC50 (Homo sapiens, RPMI-7951, read-out: IC50 in cell proliferation assay) was 26.9 µM and the IC50 (Homo sapiens, Rec1, read-out: IC50 in cell proliferation assay) was 0.000511 µM. For the same molecule, the IC50 (Homo sapiens, SK-BR-3, read-out: IC50 in cell proliferation assay) was 0.011 µM, the IC50 (Homo sapiens, SK-N-MC, read-out: IC50 in cell proliferation assay) was 1.52 µM and the IC50 [6] was 26.3 µM. It also gave an IC50 (Homo sapiens, SNU-5, read-out: IC50 in cell proliferation assay) of 17.6 µM, an IC50 (Homo sapiens, SNU-C2B, read-out: IC50 in cell proliferation assay) of 0.3 µM and an IC50 (Homo sapiens, SU-DHL-6, read-out: IC50 in cell proliferation assay) of 0.012 µM. For the same molecule, the IC50 (Homo sapiens, SUP-T1, read-out: IC50 in cell proliferation assay) was 1.31 µM, the IC50 (Homo sapiens, SW48, read-out: IC50 in cell proliferation assay) was 0.021 µM and the IC50 (Homo sapiens, SW780, read-out: IC50 in cell proliferation assay) was 18.7 µM. For the same molecule, the IC50 (Homo sapiens, T98G, read-out: IC50 in cell proliferation assay) was 20.6 µM, the IC50 (Homo sapiens, TCC-SUP, read-out: IC50 in cell proliferation assay) was 18.1 µM and the IC50 (Homo sapiens, U2OS, read-out: IC50 in cell proliferation assay) was 10.1 µM. It also gave an IC50 (Homo sapiens, U-118-MG, read-out: IC50 in cell proliferation assay) of 23.3 µM, an IC50 (L-82, read-out: IC50 in cell proliferation assay) of 17.7 µM and an IC50 (Rh30, read-out: IC50 in cell proliferation assay) of 25.7 µM.
